One data set deals with HEK293T cells. Nature of the data set: CellTiter-Glo luminescence cell viability assay. It is filed as cell-based, human. Conditions: probe 1 3 mM, 1 hour, 37° C., n=4; untreated 132±2. Here is the method:
Working stock solutions of probes and competitors were neutralized prior to treatment and media was supplemented with 10 mM Na-HEPES (pH 7.5) to enhance the buffer capacity to ensure the pH was maintained. The phenol red pH indicator of the media confirmed that there was no substantial change in pH during the treatment. Cell viability was quantified based on ATP levels in the absence and presence of probe 1 with or without competitor probe 3 using the CellTiter-Glo luminescence assay (Promega). Trypsinized HEK293T cells were diluted in serum-free DMEM supplemented with 10 mM Na-HEPES to a final concentration of 0.8 million cells/mL. To a cell culture microplate (Greiner Bio-One No. 655098; white, 96-well, 34 mm^2 growth area per well, Clear bottom), 80,000 cells (100 μL of cell suspension) were plated per well. […] After 20 minutes at ambient temperature, luminescence was measured on a Biotech Synergy 4 plate reader. Well luminescence, in relative light units (RLU), under each condition (n=4 of each) was measured to determine cell viability according to the formula: Iuntreated, Iprobe 1, and Iprobe 1/competitor 3=(132±2, 139±2, and 134±1)×10^3 RLU. “Iuntreated” refers to the intensity of luminescence of untreated cells; and “Iprobe 1” refers to the intensity of luminescence of probe-1 treated cells.
Background: In ATP-based viability assays light output follows the ATP content of the culture.

A further data set has as its target T1, AMD1 pyruvoyl cofactor (Homo sapiens, UniProt P17707).
T1 construct: made in house; host or cells: E. coli (vector pQE30)
In words: in vitro labelling of purified reconstituted AMD1, LC-MS/MS. It is filed as binding. To be noted: 50 μM AMD1, 3 mM probe 1, overnight. Here is the method:
Full-length AMD1 having an additional 12 amino acids (MRGSH6GS) (SEQ ID NO: 46) appended to the N-terminal methionine residue was expressed from the bacterial vector pQE30. The appendage contains a His6 element (SEQ ID NO: 69) to permit purification of the protein by metal ion affinity chromatography on Ni-NTA agarose (Qiagen). E. coli cell cultures were grown at 37° C. in rich LB broth (35 g/L tryptone, 20 g/L yeast extract, 5 g/L NaCl, and 0.05 g/L kanamycin (pH 7.0)) to an optical density at 600 nm of 0.6-0.8. The flasks were cooled rapidly by incubation on ice for 30 minutes prior to addition of IPTG (1 mM). Following induction, cultures were grown at 15-18° C. for an additional 16-20 hours and cells were harvested by centrifugation (8,000 g, 30 min, 4° C.). The cell paste was flash-frozen in liquid N2 and stored at −80° C. A typical yield was 8-10 g of wet cell paste per liter of culture. […]
A 100 μL solution of 50 μM purified reconstituted AMD1 in PBS was incubated overnight at ambient temperature in the presence or absence of 3 mM probe 1 (pH 7). […] Peptides were eluted from the column using a 180 minute gradient from 0% to 50% Buffer B (Buffer A: 5% acetonitrile, 95% H2O, 0.1% formic acid; Buffer B: 80% acetonitrile, 20% H2O, 0.1% formic acid) and analyzed on an LTQ-Orbitrap Finnigan mass spectrometer (Thermo Scientific). […]

The structures appear in SMILES notation. “Also recorded” adds a separate entry of the source.

T1 sequence (P17707 68-334 limits assumed): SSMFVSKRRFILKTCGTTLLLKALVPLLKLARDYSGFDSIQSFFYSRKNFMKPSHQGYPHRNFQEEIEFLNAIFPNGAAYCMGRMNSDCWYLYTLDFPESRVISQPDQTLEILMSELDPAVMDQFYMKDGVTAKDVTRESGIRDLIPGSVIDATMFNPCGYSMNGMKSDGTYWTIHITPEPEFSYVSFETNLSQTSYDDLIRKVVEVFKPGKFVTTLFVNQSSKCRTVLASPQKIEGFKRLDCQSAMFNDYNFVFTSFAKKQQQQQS
T1 sequence (P17707 1-67 partner limits assumed): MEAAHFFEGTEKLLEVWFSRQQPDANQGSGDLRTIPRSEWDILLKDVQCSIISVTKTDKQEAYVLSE

As for `C#CCNN.Cl` [probe 1, prop-2-yn-1-ylhydrazine hydrochloride], the “Well luminescence (cell viability based on ATP levels)” value with HEK293T cells is 139±2 ×10^3 RLU. On AMD1 pyruvoyl cofactor, the “site specificity of the reaction” value is given as “reacted specifically with the N-terminal pyruvoyl group”. In addition, the “extent of reaction with the pyruvoyl group” value on AMD1 pyruvoyl cofactor (ambient temperature, hydrochloride) is recorded as “the reaction with probe 1 was complete; also recorded: proceeded to near-completion”.

The values above are taken from patent US11226337B2, “Chemoproteomic profiling of protein electrophilic and oxidative post-translational modifications” (Zenagem, LLC, priority 2017, dated 2022).
